Data: ChEMBL document CHEMBL1130926, “Novel H3 receptor antagonists. Sulfonamide homologs of histamine” (Bioorg Med Chem Lett, 1998)
Activity calls are given as the source filed them. The rule behind the calls is not given here.

How the values were obtained:
Histamine H3 receptor [1] = target: T1, Histamine H3 receptor (Cavia porcellus, UniProt Q9JI35); assay: Inhibition of [3H]Nalpha-methylhistamine binding to H3 receptor in guinea-pig brain membranes; assay type: cell membranes, Membrane
Histamine H3 receptor [2] = target: T1, Histamine H3 receptor; assay: H3 -antagonist potency determined in electrically stimulated guinea-pig ileum; assay type: functional, tissue-based; details: read-out: pA2 (converted)
[3] = target: Histamine H3 receptor (Cavia porcellus) (UniProt Q9JI35); assay: Evaluated in vivo for its H3 receptor antagonist activity in the CNS hypertension model at 3 mg/kg dose; assay type: functional, organism-based; parameters: dose 3 mg/kg
Histamine H1 receptor = Histamine H1 receptor (Cavia porcellus, UniProt P31389); assay: Evaluated for the percent binding affinity against H1 receptor by an H1 histamine-mediated bronchospasm; parameters: concentration or dose not given beside the values
[4] = target: Histamine H3 receptor (Cavia porcellus) (UniProt Q9JI35); assay: Evaluated in vivo for its H3 receptor antagonist activity in the CNS hypertension model; assay type: functional, organism-based
Cavia porcellus = assay: Compound was evaluated in vivo for its H3 receptor antagonist activity in the CNS hypertension model; NA: Not active; assay type: functional, organism-based

Histamine H1 receptor, sequence (P31389 whole entry): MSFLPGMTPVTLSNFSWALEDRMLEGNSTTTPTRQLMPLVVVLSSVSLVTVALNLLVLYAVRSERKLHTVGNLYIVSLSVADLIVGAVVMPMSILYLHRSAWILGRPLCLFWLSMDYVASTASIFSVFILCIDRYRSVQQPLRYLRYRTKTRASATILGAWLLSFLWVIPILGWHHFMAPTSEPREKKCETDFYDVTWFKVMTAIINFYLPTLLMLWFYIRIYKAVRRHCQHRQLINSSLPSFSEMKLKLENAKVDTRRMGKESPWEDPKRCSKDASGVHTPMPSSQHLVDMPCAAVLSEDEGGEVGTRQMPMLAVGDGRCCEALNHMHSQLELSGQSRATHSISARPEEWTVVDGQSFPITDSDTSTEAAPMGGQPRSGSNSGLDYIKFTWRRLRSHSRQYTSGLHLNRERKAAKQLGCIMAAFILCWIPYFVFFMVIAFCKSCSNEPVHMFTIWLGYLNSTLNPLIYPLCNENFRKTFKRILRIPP
Histamine H3 receptor (Cavia porcellus), sequence (Q9JI35 whole entry): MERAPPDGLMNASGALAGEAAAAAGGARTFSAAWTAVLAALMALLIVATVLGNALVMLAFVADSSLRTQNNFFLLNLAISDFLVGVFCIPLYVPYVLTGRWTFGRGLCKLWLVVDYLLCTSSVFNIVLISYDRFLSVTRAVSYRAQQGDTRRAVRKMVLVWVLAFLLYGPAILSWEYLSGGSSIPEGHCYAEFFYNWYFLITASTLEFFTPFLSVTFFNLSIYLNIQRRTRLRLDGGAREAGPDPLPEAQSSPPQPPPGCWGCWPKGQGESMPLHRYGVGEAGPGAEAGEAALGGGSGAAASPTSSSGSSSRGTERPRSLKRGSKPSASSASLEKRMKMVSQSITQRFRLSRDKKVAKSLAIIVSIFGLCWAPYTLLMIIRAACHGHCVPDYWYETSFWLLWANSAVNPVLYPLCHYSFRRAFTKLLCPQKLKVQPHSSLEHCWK
T1 sequence (Q9JI35 whole entry): as above

O=[N+]([O-])c1ccccc1CS(=O)(=O)NCCCCc1cnc[nH]1
Ki (Histamine H3 receptor [1]): 42 nM

CN(CCCCc1c[nH]cn1)S(=O)(=O)c1ccc(Cl)cc1
Ki (Histamine H3 receptor [1]): 4 nM
Kb (Histamine H3 receptor [2]): 5.01 nM
inhibition [3]: 43%
inhibition (Histamine H1 receptor): 32%

O=S(=O)(NCCCCCc1c[nH]cn1)c1ccccc1
Ki (Histamine H3 receptor [1]): 24.5 nM
Kb (Histamine H3 receptor [2]): 63.1 nM
inhibition (Histamine H1 receptor): 19%

O=S(=O)(NCCCCc1c[nH]cn1)c1ccc(Cl)cc1
ED50 [4]: 2.2 mg/kg
inhibition (Histamine H1 receptor): 48%

CC(C)(C)c1ccc(S(=O)(=O)NCCCCc2c[nH]cn2)cc1
Ki (Histamine H3 receptor [1]): 16.5 nM
ED50 [4]: 3 mg/kg
Kb (Histamine H3 receptor [2]): 15.8 nM
inhibition (Histamine H1 receptor): 32%

Cn1cc[n+](S(=O)(=O)NCCCCc2c[nH]cn2)c1
Ki (Histamine H3 receptor [1]): 43 nM

O=S(=O)(c1ccc(Cl)cc1)N(CCCCc1c[nH]cn1)CCCCn1ccnc1
Ki (Histamine H3 receptor [1]): 2.5 nM
Kb (Histamine H3 receptor [2]): 7.94 nM

Nc1ccc(S(=O)(=O)NCCCCc2c[nH]cn2)cc1
Ki (Histamine H3 receptor [1]): 99 nM

O=S(=O)(Cc1ccccc1)NCCCCc1c[nH]cn1
Ki (Histamine H3 receptor [1]): 6 nM
Kb (Histamine H3 receptor [2]): 31.6 nM
inhibition [3]: 17%
inhibition (Histamine H1 receptor): 3%

O=S(=O)(NCCCCCc1c[nH]cn1)c1ccc(Cl)cc1
ED50 [4]: 3 mg/kg
inhibition (Histamine H1 receptor): 37%

O=S(=O)(NCCCCc1c[nH]cn1)c1ccc(F)cc1
Ki (Histamine H3 receptor [1]): 20.5 nM
Kb (Histamine H3 receptor [2]): 158 nM
inhibition (Histamine H1 receptor): 19%

O=S(=O)(NCCCCc1cnc[nH]1)c1ccc(Cl)cc1
Ki (Histamine H3 receptor [1]): 9 nM
Kb (Histamine H3 receptor [2]): 12.6 nM

O=[N+]([O-])c1ccc(S(=O)(=O)NCCCc2c[nH]cn2)cc1
Ki (Histamine H3 receptor [1]): 93 nM
inhibition (Histamine H1 receptor): 36%

O=S(=O)(NCCCCc1c[nH]cn1)c1cccc(Cl)c1
Ki (Histamine H3 receptor [1]): 8.5 nM
Kb (Histamine H3 receptor [2]): 50.1 nM
inhibition [3]: 8%

CC(C)(C)c1ccc(S(=O)(=O)NCCCc2c[nH]cn2)cc1
Ki (Histamine H3 receptor [1]): 45.5 nM
inhibition (Histamine H1 receptor): 30%

O=S(=O)(NCCCCc1c[nH]cn1)c1ccc(C(F)(F)F)cc1
Ki (Histamine H3 receptor [1]): 10 nM
ED50 [4]: 3 mg/kg
Kb (Histamine H3 receptor [2]): 3.98 nM
inhibition (Histamine H1 receptor): 1%

O=S(=O)(NCCCc1cnc[nH]1)c1cccs1
Ki (Histamine H3 receptor [1]): 550 nM

O=S(=O)(NCCCCc1c[nH]cn1)c1ccc(OC(F)(F)F)cc1
Ki (Histamine H3 receptor [1]): 7 nM
Kb (Histamine H3 receptor [2]): 10 nM
ED50 (Cavia porcellus): inactive

O=S(=O)(NCCCc1c[nH]cn1)c1ccc(Cl)cc1
Ki (Histamine H3 receptor [1]): 380 nM
inhibition (Histamine H1 receptor): 21%

O=[N+]([O-])c1ccc(S(=O)(=O)NCCCCc2cnc[nH]2)cc1
Ki (Histamine H3 receptor [1]): 16.5 nM
Kb (Histamine H3 receptor [2]): 20 nM

O=[N+]([O-])c1ccc(S(=O)(=O)NCCCCCc2c[nH]cn2)cc1
Ki (Histamine H3 receptor [1]): 5.5 nM
ED50 [4]: 2.7 mg/kg
Kb (Histamine H3 receptor [2]): 7.94 nM
inhibition (Histamine H1 receptor): 25%

Cc1ccc(S(=O)(=O)NCCCCc2c[nH]cn2)cc1
inhibition [3]: 16%

O=[N+]([O-])c1ccc(S(=O)(=O)NCCCCc2c[nH]cn2)cc1
ED50 (Cavia porcellus): inactive
inhibition (Histamine H1 receptor): 24%

CC(C)(C)c1ccc(S(=O)(=O)NCCCCCc2c[nH]cn2)cc1
Ki (Histamine H3 receptor [1]): 5 nM
Kb (Histamine H3 receptor [2]): 10 nM
inhibition [3]: 40%
inhibition (Histamine H1 receptor): 14%

Cc1ccc(S(=O)(=O)NCCCCc2cnc[nH]2)cc1
Ki (Histamine H3 receptor [1]): 17 nM
Kb (Histamine H3 receptor [2]): 25.1 nM

O=S(=O)(c1ccc(Cl)cc1)N(CCCCc1c[nH]cn1)Cc1ccc(Cl)cc1
Ki (Histamine H3 receptor [1]): 24 nM
ED50 [4]: 3 mg/kg
Kb (Histamine H3 receptor [2]): 15.8 nM
inhibition (Histamine H1 receptor): 45%

COc1ccc(S(=O)(=O)NCCCCc2cnc[nH]2)cc1
Ki (Histamine H3 receptor [1]): 51 nM

CC(C)S(=O)(=O)NCCCCc1cnc[nH]1
Ki (Histamine H3 receptor [1]): 22 nM
Kb (Histamine H3 receptor [2]): 63.1 nM

O=S(=O)(NCCCCc1cnc[nH]1)c1ccccc1
Ki (Histamine H3 receptor [1]): 10.5 nM
Kb (Histamine H3 receptor [2]): 31.6 nM

O=S(=O)(NCCCCc1c[nH]cn1)c1ccccc1
ED50 (Cavia porcellus): inactive
inhibition (Histamine H1 receptor): 5%

O=S(=O)(NCCCCCc1c[nH]cn1)c1ccc(OC(F)(F)F)cc1
Ki (Histamine H3 receptor [1]): 24.3 nM
Kb (Histamine H3 receptor [2]): 10 nM
inhibition (Histamine H1 receptor): 1%

O=S(=O)(NCCCCc1cnc[nH]1)c1cccs1
Ki (Histamine H3 receptor [1]): 45 nM

O=S(=O)(NCCCCCc1cnc[nH]1)c1ccc(Cl)cc1
Ki (Histamine H3 receptor [1]): 11.5 nM
Kb (Histamine H3 receptor [2]): 100 nM
